The results in this text go back to US20060052627A1, “Novel modulators of the PPAR-type receptors and cosmetic/pharmaceutical compositions comprised thereof” (GALDERMA RESEARCH & DEVELOPMENT, S.N.C., priority 2003, published 2006).

Common to all, as to format: cell-based
In experiment [1] the target is PPARδ (Homo sapiens, UniProt Q03181). Description: Cross-curve PPAR transactivation test (luciferase reporter, HeLN cells), PPARδ. Particulars: HeLN cells stably transfected with Gal-hPPARδ; apparent Kd by Schild regression against reference agonist; n.a. means not active; read-out: PPAR delta Kd app. The method, then: (§1) This activity on the PPARα, δ and γ receptors is measured in a transactivation test and quantified by the dissociation constant Kdapp (apparent), as described in Example 142.
(§2) The activation of receptors with an agonist (activator) in HeLN cells leads to the expression of a reporter gene, luciferase, which, in the presence of a substrate, generates light. The modulation of the receptors is measured as quantity of luminescence produced after incubating the cells in the presence of a reference agonist. The ligands will displace the agonist from its site. The measurement of the activity is performed by quantification of the light produced. This measurement makes it possible to determine the modulatory activity of the compounds according to the invention by determining the constant which is the affinity of the molecule for the receptor. […]
(§3) The various dilutions of the test products and of the reference ligand are added in an amount of 5 [I per well. […] After 5 minutes, the plates are read by the luminescence reader.
(§4) These AC50 values are used to calculate the Schild regression by plotting a straight line corresponding to the Schild equation (“quantitation in receptor pharmacology” Terry P. Kenakin, Receptors and Channels, 2001, 7, 371-385) which leads to Kd app values being obtained (in nM).

Experiment [2] deals with T1, PPARγ (Homo sapiens, UniProt P37231).
T1 sequence (P37231 238-505 limits assumed): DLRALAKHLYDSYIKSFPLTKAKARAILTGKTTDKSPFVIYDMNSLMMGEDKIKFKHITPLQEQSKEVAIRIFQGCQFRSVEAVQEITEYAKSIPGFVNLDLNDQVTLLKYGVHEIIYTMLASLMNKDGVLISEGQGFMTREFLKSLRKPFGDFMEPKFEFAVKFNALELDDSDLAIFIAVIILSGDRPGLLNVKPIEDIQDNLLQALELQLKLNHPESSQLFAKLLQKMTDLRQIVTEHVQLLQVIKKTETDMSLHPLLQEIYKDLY
As to the kind of experiment: Cross-curve PPAR transactivation test (luciferase reporter, HeLN cells), PPARγ. Particulars: HeLN cells stably transfected with Gal-hPPARγ; apparent Kd by Schild regression against reference agonist; n.a. means not active; read-out: PPAR gamma Kd app. Here is the method: as §1, §2, §3, §4
In general terms: A reporter such as luciferase makes a cellular process visible.

The target in experiment [3] is T2, PPARα (Homo sapiens, UniProt Q07869).
T2 sequence (Q07869 200-468 limits assumed): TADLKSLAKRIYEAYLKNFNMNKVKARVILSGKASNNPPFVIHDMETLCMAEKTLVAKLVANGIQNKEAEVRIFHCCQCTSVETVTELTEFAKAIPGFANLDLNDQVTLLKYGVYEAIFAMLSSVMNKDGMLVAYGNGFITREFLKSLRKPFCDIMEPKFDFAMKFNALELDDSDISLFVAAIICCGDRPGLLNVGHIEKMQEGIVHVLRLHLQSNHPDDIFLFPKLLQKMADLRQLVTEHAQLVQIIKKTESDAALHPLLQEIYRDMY
As to the kind of experiment: Cross-curve PPAR transactivation test (luciferase reporter, HeLN cells), PPARα. Particulars: HeLN cells stably transfected with Gal-hPPARα; apparent Kd by Schild regression against reference agonist; n.a. means not active; read-out: PPAR alpha Kd app. Here is the method:
as §1, §2, §3, §4

PPARδ, sequence (Q03181 211-441 limits assumed): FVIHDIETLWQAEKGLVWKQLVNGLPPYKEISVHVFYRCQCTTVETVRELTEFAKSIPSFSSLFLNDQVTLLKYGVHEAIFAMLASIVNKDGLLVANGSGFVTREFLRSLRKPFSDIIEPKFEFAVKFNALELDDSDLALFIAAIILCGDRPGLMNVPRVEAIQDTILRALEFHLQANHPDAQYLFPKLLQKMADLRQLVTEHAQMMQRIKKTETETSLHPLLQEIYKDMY

As for `O=C(O)Cc1ccc(Sc2ccc(N(CCc3ccccc3)C(=O)NC3CCCCC3)cc2)cc1` [Example 116b, {4-[4-(3-Cyclohexyl-1-phenethylureido)phenylsulfanyl]phenyl}acetic acid], the Kd is 120 nM in experiment [1], 500 nM in experiment [2] and 250 nM in experiment [3].

In the case of `CCCCCCNC(=O)N(CCCc1ccccc1)c1cccc(Sc2ccc(CC(=O)O)cc2)c1` [Example 30b, (4-{3-[3-Hexyl-1-(3-phenylpropyl)ureido]phenylsulfanyl}phenyl)acetic acid], the figures for the Kd in experiment [1], in experiment [2] and in experiment [3] were 120 nM, 2000 nM and 8000 nM, respectively.
